According to PubChem BioAssay AID1963856 (Molecular Pharmacology Branch, DTP, NCI, 2024):

Tested on: LG0567-F671-PDC KRAS tumor spheroid viability
Experiment: Anticancer human tumor LG0567-F671-PDC patient-derived lung adenocarcinoma cell line growth inhibition [KRAS2]
Details: spheroids with HUVEC and MSC; for IC50: curve of first compound; for viability, T/C: stronger effect = lower value
Excerpt: Multicellular complex tumor spheroid response to RAS pathway inhibitors in combination with a targeted agents in patient-derived cell lines with oncogenic KRAS variants from multiple cancer types
A high-throughput screen of multi-cell type tumor spheroids was designed to identify active combinations of targeted small molecules and KRAS pathway inhibitors. Complex spheroids include a stromal component modeled by human endothelial cells (HUVEC) and fibroblasts modeled by human mesenchymal stem cells (MSCs). The concentration ranges selected for each drug and investigational agent were based upon clinically achievable concentrations if the clinical Cmax of the agent was known.
Compounds. The drugs and investigational agents: BI-3406 (NSC825286), BAY-293 (NSC824723), batoprotafib (TNO155; NSC825523), sotorasib (AMG 510; NSC818433), MRTX1257 (NSC819558), elimusertib (BAY 1895344; NSC800525), molibresib (GSK525762; NSC774829), temuterkib (LY3214996; NSC803410), venetoclax (NSC766270), alisertib (NSC759677), olaparib (NSC753686), talazoparib (NSC767125), erdafitinib (NSC781556), ipatasertib (NSC767898), cabozantinib (NSC761068), nintedanib (NSC756659), abemaciclib (NSC768073), docetaxel (NSC628503), trametinib (NSC758246), and sapanisertib (NSC764658) were obtained from the National Cancer Institute (NCI) Developmental Therapeutics Program Chemical Repository. The FDA-approved anticancer drug set is available from the Developmental Therapeutics Program. […] The stock solutions were prepared in dimethyl sulfoxide (DMSO, Sigma-Aldrich, St. Louis, MO, cat. D2650) at 800-fold the tested concentration and stored at -70 degrees C prior to their use. All drugs and investigational agents were tested over a range starting from a high concentration at or near the clinical Cmax and decreasing in half-log increments. If the clinical Cmax for an agent had not been determined, the highest concentration tested was 10 microM.
Cell Culture. All cells were maintained in an incubator at 37 degrees C and 5% CO2 with 95% humidity. The PDC lines were cultured according to standard operating procedures established by the NCI PDMR (https://pdmr.cancer.gov/sops/default.htm). Briefly, all PDCs were thawed and cultured in Matrigel-coated flasks prepared with a working solution of 1X Ham's F-12 nutrient mix, without supplementation (Invitrogen, Waltham, MA, cat. 11765054), 100 U/mL penicillin-streptomycin (Invitrogen, cat. 15140122), and 2.5% Matrigel (Corning Inc., Corning, NY, cat. 354248) for the first three passages. All PDCs were cultured in complete DMEM/F-12 media containing advanced DMEM/F-12 (Invitrogen, cat. 12634028), 4.9% defined fetal bovine serum, heat inactivated (HyClone Laboratories Inc., Logan, UT, cat. SH30070.03HI), 389 ng/mL hydrocortisone (Sigma-Aldrich, cat. H4001), 9.7 ng/mL human EGF recombinant protein (Invitrogen, cat. PHG0313), 23.4 microg/mL adenine (Sigma-Aldrich, cat. A2786), 97.3 U/mL penicillin-streptomycin (Invitrogen, cat. 15140122), 1.9 mM L-glutamine (Invitrogen, cat. 25030081), and 9.7 microM Y-27632 dihydrochloride (Tocris Bioscience, Bristol, United Kingdom, cat. 1254). The PDCs were cultured in complete DMEM/F12 media without 9.7 microM Y-27632 dihydrochloride for at least two passages prior to the screen. The established cell line HOP-62 was cultured in RPMI 1640 medium, HEPES (Invitrogen, cat. 22400105) with 10% defined fetal bovine serum (HyClone Laboratories Inc., cat. SH30070.03) and 2 mM L-glutamine (Invitrogen, cat. 25030081). The pooled donor HUVEC were cultured in endothelial cell growth medium 2 (PromoCell, Heidelberg, Germany, cat. C-22011) and the hMSC were cultured in mesenchymal stem cell growth medium 2 (PromoCell, cat. C-28009). For all experiments, HUVEC and hMSC were used at passages </=5, while the malignant cell lines were used at passages </=15. […]

[1] = second compound 0.1 µM, first compound 0.0316 µM
[2] = second compound 0.316 µM, first compound 0.0316 µM
[3] = second compound 1 µM, first compound 0.0316 µM
[4] = second compound 3.16 µM, first compound 0.0316 µM
[5] = second compound 10 µM, first compound 0.0316 µM
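Further: drug exposure lasted seven days after spheroids formed for three days.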
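Wherever viability, T/C is given: 100% = DMSO vehicle control viability.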

CC(=O)Nc1cccc(-n2c(=O)n(C3CC3)c(=O)c3c(Nc4ccc(I)cc4F)n(C)c(=O)c(C)c32)c1 + C=CC(=O)N1CCN(c2nc(=O)n(-c3c(C)ccnc3C(C)C)c3nc(-c4c(O)cccc4F)c(F)cc23)C(C)C1
IC50 (second compound 0.1 µM): < 0.1 nM
IC50 (second compound 0.316 µM): < 0.1 nM
IC50 (second compound 1 µM): < 0.1 nM
IC50 (second compound 3.16 µM): < 0.1 nM
IC50 (second compound 10 µM): < 0.1 nM
viability, T/C (second compound 0.1 µM, first compound 0.0001 µM): 26.4%
viability, T/C (second compound 0.1 µM, first compound 0.000316 µM): 25.5%
viability, T/C (second compound 0.1 µM, first compound 0.001 µM): 26.4%
viability, T/C (second compound 0.1 µM, first compound 0.00316 µM): 27.6%
viability, T/C (second compound 0.1 µM, first compound 0.01 µM): 12.1%
viability, T/C [1]: 4.13%
viability, T/C (second compound 0.316 µM, first compound 0.0001 µM): 24.9%
viability, T/C (second compound 0.316 µM, first compound 0.000316 µM): 24.7%
viability, T/C (second compound 0.316 µM, first compound 0.001 µM): 28.9%
viability, T/C (second compound 0.316 µM, first compound 0.00316 µM): 14.2%
viability, T/C (second compound 0.316 µM, first compound 0.01 µM): 8.8%
viability, T/C [2]: 2.68%
viability, T/C (second compound 1 µM, first compound 0.0001 µM): 30.5%
viability, T/C (second compound 1 µM, first compound 0.000316 µM): 28.2%
viability, T/C (second compound 1 µM, first compound 0.001 µM): 22.8%
viability, T/C (second compound 1 µM, first compound 0.00316 µM): 17.7%
viability, T/C (second compound 1 µM, first compound 0.01 µM): 8.78%
viability, T/C [3]: 3.83%
viability, T/C (second compound 3.16 µM, first compound 0.0001 µM): 26.7%
viability, T/C (second compound 3.16 µM, first compound 0.000316 µM): 27.7%
viability, T/C (second compound 3.16 µM, first compound 0.001 µM): 20.1%
viability, T/C (second compound 3.16 µM, first compound 0.00316 µM): 10.5%
viability, T/C (second compound 3.16 µM, first compound 0.01 µM): 10.7%
viability, T/C [4]: 3.27%
viability, T/C (second compound 10 µM, first compound 0.0001 µM): 20.3%
viability, T/C (second compound 10 µM, first compound 0.000316 µM): 18.9%
viability, T/C (second compound 10 µM, first compound 0.001 µM): 16.9%
viability, T/C (second compound 10 µM, first compound 0.00316 µM): 11.7%
viability, T/C (second compound 10 µM, first compound 0.01 µM): 6.78%
viability, T/C [5]: 4.36%

COc1cc(Nc2ncc3c(n2)-c2ccc(Cl)cc2C(c2c(F)cccc2OC)=NC3)ccc1C(=O)O + C=CC(=O)N1CCN(c2nc(=O)n(-c3c(C)ccnc3C(C)C)c3nc(-c4c(O)cccc4F)c(F)cc23)C(C)C1
IC50 (second compound 0.1 µM): < 31.6 nM
IC50 (second compound 0.316 µM): < 31.6 nM
IC50 (second compound 1 µM): < 31.6 nM
IC50 (second compound 3.16 µM): < 31.6 nM
IC50 (second compound 10 µM): < 31.6 nM
viability, T/C [1]: 25.7%
viability, T/C (second compound 0.1 µM, first compound 0.1 µM): 24.3%
viability, T/C (second compound 0.1 µM, first compound 0.316 µM): 25.9%
viability, T/C (second compound 0.1 µM, first compound 1 µM): 24.3%
viability, T/C (second compound 0.1 µM, first compound 3.16 µM): 22.8%
viability, T/C (second compound 0.1 µM, first compound 10 µM): 21.6%
viability, T/C [2]: 12.2%
viability, T/C (second compound 0.316 µM, first compound 0.1 µM): 11.9%
viability, T/C (second compound 0.316 µM, first compound 0.316 µM): 11.1%
viability, T/C (second compound 0.316 µM, first compound 1 µM): 11.3%
viability, T/C (second compound 0.316 µM, first compound 3.16 µM): 11.4%
viability, T/C (second compound 0.316 µM, first compound 10 µM): 9.24%
viability, T/C [3]: 27.2%
viability, T/C (second compound 1 µM, first compound 0.1 µM): 23.6%
viability, T/C (second compound 1 µM, first compound 0.316 µM): 23.5%
viability, T/C (second compound 1 µM, first compound 1 µM): 24.6%
viability, T/C (second compound 1 µM, first compound 3.16 µM): 25.7%
viability, T/C (second compound 1 µM, first compound 10 µM): 21.6%
viability, T/C [4]: 23.8%
viability, T/C (second compound 3.16 µM, first compound 0.1 µM): 20.6%
viability, T/C (second compound 3.16 µM, first compound 0.316 µM): 20.2%
viability, T/C (second compound 3.16 µM, first compound 1 µM): 22.2%
viability, T/C (second compound 3.16 µM, first compound 3.16 µM): 21%
viability, T/C (second compound 3.16 µM, first compound 10 µM): 20.6%
viability, T/C [5]: 23.3%
viability, T/C (second compound 10 µM, first compound 0.1 µM): 23.5%
viability, T/C (second compound 10 µM, first compound 0.316 µM): 23.8%
viability, T/C (second compound 10 µM, first compound 1 µM): 24.4%
viability, T/C (second compound 10 µM, first compound 3.16 µM): 22.5%
viability, T/C (second compound 10 µM, first compound 10 µM): 29.5%
